Laboratory results from patent US12097215B2, “Antibacterial composition and its use in treating bacterial infections” (Vector Vitale IP LLC, priority 2017, dated 2024).
Like-named read-outs stand apart in the source and are kept apart here. Marks after values point to notes of the source that are not given here.

Legend:
S. aureus ATCC 25923 [1] = assay: MIC by serial dilutions in broth (visible growth); type: cell-based; details: for MIC: Staphylococcus aureus, ATCC25923, read-out: MIC;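 for all read-outs here: broth tubes inoculated at about 5×10^5 CFU/ml, incubated 16-24 h at 35 °C in air, growth judged by transmitted light against an unexposed refrigerated inoculum tube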
Procedure: (§3) The minimum inhibitory concentration (MIC) and minimum bactericidal concentration (MBC) of the antibacterial composition enriched for the light isotope zinc ^64Zne was evaluated in the experiment. […] S. aureus ATCC 25923, E. coli ATCC 25922 and P. aeruginosa ATCC 27853 were used as test cultures.
(§4) The studies were carried out using the method of serial dilutions in broth. To determine sensitivity of microorganisms to the antibacterial composition, 0.5 ml of broth was placed into each tube. The number of tubes was determined based on the desired number of dilutions and was increased by one for the “negative” control (no test composition). Series of two-fold serial dilutions of the test variants of the antibacterial composition were used and concentrations ranging from 450 mcg ^64Zne/ml to 0.000107 mcg ^64Zne/ml were obtained.
(§5) Reference test strains of S. aureus ATCC 25923, E. coli ATCC 25922 and P. aeruginosa ATCC 27853 were incubated in Mueller-Hinton liquid broth at 37° C. for 24 hours. Standard bacterial suspension equivalent to 0.5 McFarland standard diluted 100-fold with the broth was used for the inoculation of the tubes after which the concentration of microorganism in it was approximately 10^6 CFU/ml.
(§6) 0.5 ml of inoculum was added to each tube containing 0.5 ml of the appropriate dilution of a solution of the ^64Zn-enriched salt of interest. […] The final concentration of the microorganism in each tube was approximately 5×10^5 CFU/ml.
(§7) The tubes were incubated at 35° C. in air for 16-20 or 20-24 hours (depending on the bacterial strain).
(§8) To determine the presence of microorganism growth the test tubes with inoculum were viewed under transmitted light. Transmitted light was measured by spectrophotometry. The growth of culture in the presence of antibacterial compositions based on ^64Zne was compared with the reference test tube (“negative” control), containing the original inoculum and stored in the refrigerator. The MIC was determined as the lowest concentration of ^64Zne that inhibits visible growth of the microorganism. Both gram-positive (S. aureus) and gram-negative bacteria (P. aeruginosa, E. coli) were used in the experiments described below.
(§9) That is, ^64Zne in the form of a salt was compared with a composition that contains zinc with a natural distribution of isotopes. […] Relevant samples containing salt of natural zinc with EDDA and natural zinc sulfate were used for the comparison.
(§10) The following commercial antibacterial medications were used for the study: azithromycin and ceftriaxone and norfloxacin. The initial concentration of 3000 mcg/ml was used for the samples of all the above compounds. […] Serial dilutions of the above antibacterial compounds were also prepared in the same way as for the antibacterial composition of the invention. The same pathogenic strains of S. aureus ATCC 25923, E. coli ATCC 25922, P. aeruginosa ATCC 27853 were used for the study.

P. aeruginosa ATCC 27853 [2] = assay: MIC by serial dilutions in broth (visible growth); details: for MIC: Pseudomonas aeruginosa, ATCC27853
Procedure: as §3, §4, §5, §6, §7, §8, §9, §10

E. coli ATCC 25922 [3] = assay: MIC by serial dilutions in broth (visible growth); type: cell-based; details: for MIC: Escherichia coli, ATCC25922, read-out: MIC;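 for all read-outs here: broth tubes inoculated to about 5×10^5 CFU/ml, incubated at 35 °C for 16-24 h, growth judged by transmitted light versus an untreated inoculum reference tube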
Procedure: as §3, §4, §5, §6, §7, §8, §9, §10

P. aeruginosa ATCC 27853 [4] = assay: MBC by plating tube contents on Mueller-Hinton medium; type: cell-based
Procedure: (§1) To evaluate the bactericidal action of the antibacterial composition based on light isotope ^64Zne the minimum bactericidal concentration (MBC) was determined by plating out 0.1 ml of the contents of each tube containing the antibacterial composition on Mueller-Hinton medium. The incubation was at 37° C. for 24 h.
(§2) The MBC of the test samples was determined as the lowest concentration at which there was no growth on Mueller-Hinton agar medium.

S. aureus ATCC 25923 [5] = assay: as above; type: cell-based
Procedure: as §1, §2

E. coli ATCC 25922 [6] = assay: as above; type: cell-based
Procedure: as §1, §2

[7] = Table 9, commercial antibacterial agents
[8] = concentration of ^64Zne, Tables 1-5

CO/N=C(\C(=O)N[C@@H]1C(=O)N2C(C(=O)O)=C(CSc3nc(=O)c(=O)[nH]n3C)CS[C@H]12)c1csc(N)n1 [ceftriaxone, reference compound]
375 µg/mL: MBC (S. aureus ATCC 25923 [5]; Staphylococcus aureus, ATCC25923, Table 10, commercial antibacterial agents, read-out: MBC)
750 µg/mL: MIC (P. aeruginosa ATCC 27853 [2])
2.93 µg/mL: MIC (E. coli ATCC 25922 [3]; [7])
11.7 µg/mL: MIC (S. aureus ATCC 25923 [1]; [7]) | MBC (E. coli ATCC 25922 [6]; Escherichia coli, ATCC25922, Table 10, commercial antibacterial agents, read-out: MBC)
< 1500 µg/mL: MBC (P. aeruginosa ATCC 27853 [4]; Pseudomonas aeruginosa, ATCC27853, Table 10, commercial antibacterial agents, read-out: MBC)

NC(CC(=O)O)C(=O)O (stereo not shown) [^64Zne aspartate]
0.0229 µg/mL: MIC (E. coli ATCC 25922 [3]; [8])
0.732 µg/mL: MIC (P. aeruginosa ATCC 27853 [2])
0.0057 µg/mL: MIC (S. aureus ATCC 25923 [1]; [8])
best results: bacteriostatic activity (in words) (P. aeruginosa ATCC 27853 [2])
+: visible growth (S. aureus ATCC 25923 [1]; ^64Zne 0.00018 mcg/ml) | visible growth (S. aureus ATCC 25923 [1]; ^64Zne 0.00036 mcg/ml) | visible growth (S. aureus ATCC 25923 [1]; ^64Zne 0.00072 mcg/ml) | visible growth (S. aureus ATCC 25923 [1]; ^64Zne 0.0014 mcg/ml) | visible growth (S. aureus ATCC 25923 [1]; ^64Zne 0.0029 mcg/ml) | visible growth (E. coli ATCC 25922 [3]; ^64Zne 0.00018 mcg/ml) | visible growth (E. coli ATCC 25922 [3]; ^64Zne 0.00036 mcg/ml) | visible growth (E. coli ATCC 25922 [3]; ^64Zne 0.00072 mcg/ml) | visible growth (E. coli ATCC 25922 [3]; ^64Zne 0.0014 mcg/ml) | visible growth (E. coli ATCC 25922 [3]; ^64Zne 0.0029 mcg/ml) | visible growth (E. coli ATCC 25922 [3]; ^64Zne 0.0057 mcg/ml) | visible growth (E. coli ATCC 25922 [3]; ^64Zne 0.011 mcg/ml)
−: visible growth (S. aureus ATCC 25923 [1]; ^64Zne 0.0057 mcg/ml) | visible growth (S. aureus ATCC 25923 [1]; ^64Zne 0.011 mcg/ml) | visible growth (S. aureus ATCC 25923 [1]; ^64Zne 0.023 mcg/ml) | visible growth (S. aureus ATCC 25923 [1]; ^64Zne 0.046 mcg/ml) | visible growth (S. aureus ATCC 25923 [1]; ^64Zne 0.092 mcg/ml) | visible growth (S. aureus ATCC 25923 [1]; ^64Zne 0.18 mcg/ml) | visible growth (S. aureus ATCC 25923 [1]; ^64Zne 0.37 mcg/ml) | visible growth (S. aureus ATCC 25923 [1]; ^64Zne 0.73 mcg/ml) | visible growth (S. aureus ATCC 25923 [1]; ^64Zne 1.46 mcg/ml) | visible growth (S. aureus ATCC 25923 [1]; ^64Zne 2.93 mcg/ml) | visible growth (S. aureus ATCC 25923 [1]; ^64Zne 5.86 mcg/ml) | visible growth (S. aureus ATCC 25923 [1]; ^64Zne 11.72 mcg/ml) | visible growth (S. aureus ATCC 25923 [1]; ^64Zne 23.44 mcg/ml) | visible growth (S. aureus ATCC 25923 [1]; ^64Zne 46.88 mcg/ml) | visible growth (S. aureus ATCC 25923 [1]; ^64Zne 93.75 mcg/ml) | visible growth (S. aureus ATCC 25923 [1]; ^64Zne 187.5 mcg/ml) | visible growth (S. aureus ATCC 25923 [1]; ^64Zne 375 mcg/ml) | visible growth (E. coli ATCC 25922 [3]; ^64Zne 0.023 mcg/ml) | visible growth (E. coli ATCC 25922 [3]; ^64Zne 0.046 mcg/ml) | visible growth (E. coli ATCC 25922 [3]; ^64Zne 0.092 mcg/ml) | visible growth (E. coli ATCC 25922 [3]; ^64Zne 0.18 mcg/ml) | visible growth (E. coli ATCC 25922 [3]; ^64Zne 0.37 mcg/ml) | visible growth (E. coli ATCC 25922 [3]; ^64Zne 0.73 mcg/ml) | visible growth (E. coli ATCC 25922 [3]; ^64Zne 1.46 mcg/ml) | visible growth (E. coli ATCC 25922 [3]; ^64Zne 2.93 mcg/ml) | visible growth (E. coli ATCC 25922 [3]; ^64Zne 5.86 mcg/ml) | visible growth (E. coli ATCC 25922 [3]; ^64Zne 11.72 mcg/ml) | visible growth (E. coli ATCC 25922 [3]; ^64Zne 23.44 mcg/ml) | visible growth (E. coli ATCC 25922 [3]; ^64Zne 46.88 mcg/ml) | visible growth (E. coli ATCC 25922 [3]; ^64Zne 93.75 mcg/ml) | visible growth (E. coli ATCC 25922 [3]; ^64Zne 187.5 mcg/ml) | visible growth (E. coli ATCC 25922 [3]; ^64Zne 375 mcg/ml) | visible growth (E. coli ATCC 25922 [3]; ^64Zne 750 mcg/ml)

NC(CC(=O)[O-])C(=O)[O-].[64Zn+2] (racemic) [^64Zne aspartate]
0.023* mcg ^64Zne/ml: MBC (S. aureus ATCC 25923 [5]; Table 6)
>750 mcg ^64Zne/ml: MBC (P. aeruginosa ATCC 27853 [4]; Table 6)
0.73* mcg ^64Zne/ml: MBC (E. coli ATCC 25922 [6]; Table 6)
